Common to all, as to format: ADME
Holding throughout (conditions): human, recombinant enzyme

The nature of data set [1]: Drug metabolism assessed as recombinant CYP2B6.1 (unknown origin) expressed in insect cell microsomes-mediated R-2-ethyl-1,5-dimethyl-3,3-diphenylpyrrolidine formation at 0.25 to 2 uM after 10 mins high-pressure liquid chromatography analysis.
Data set [2] can be described thus: Drug metabolism assessed as recombinant CYP2B6.1 (unknown origin) expressed in insect cell microsomes-mediated S-2-ethyl-1,5-dimethyl-3,3-diphenylpyrrolidine formation at 0.25 to 2 uM after 10 mins high-pressure liquid chromatography analysis.
The nature of data set [3]: Drug metabolism assessed as recombinant CYP2B6.6 (unknown origin) expressed in insect cell microsomes-mediated R-2-ethyl-1,5-dimethyl-3,3-diphenylpyrrolidine formation at 0.25 to 2 uM after 10 mins high-pressure liquid chromatography analysis.
A short description of data set [4]: Drug metabolism assessed as recombinant CYP2B6.6 (unknown origin) expressed in insect cell microsomes-mediated S-2-ethyl-1,5-dimethyl-3,3-diphenylpyrrolidine formation at 0.25 to 2 uM after 10 mins high-pressure liquid chromatography analysis.

On to `CCC(=O)C(CC(C)N(C)C)(c1ccccc1)c1ccccc1` (racemic) [METHADONE], for which the Ks was 40 µM in data set [1], 13 µM in data set [2], 57 µM in data set [3] and 20 µM in data set [4].

As to `CCC(=O)C(CC(C)N(C)C)(c1ccccc1)c1ccccc1` (stereo in doubt) [METHADONE], the Ks worked out at 75 µM in data set [1], 25 µM in data set [2], 97 µM in data set [3] and 40 µM in data set [4].

The values above are taken from ChEMBL document CHEMBL3526094, “Methadone N-demethylation by the common CYP2B6 allelic variant CYP2B6.6” (Drug Metab Dispos, 2013).
